Test results published in patent publication US11739098B2 (BRISTOL-MYERS SQUIBB COMPANY, priority 2017, dated 2023).
Counter-ions that a name gives are not always drawn.

Key:
Format in all cases: cell-based
[1] = molecular target: T1, human TLR9 (Homo sapiens, UniProt Q9NR96); test: TLR9 inhibition reporter assay (HEK-Blue cells, SEAP reporter, ODN2006 stimulation); conditions: HEK-Blue cells overexpressing human TLR9, SEAP reporter, ODN2006 5 nM
T1 construct: host or cells: HEK-Blue cells (HEK293-derived reporter line)
T1 sequence (Q9NR96 26-1032): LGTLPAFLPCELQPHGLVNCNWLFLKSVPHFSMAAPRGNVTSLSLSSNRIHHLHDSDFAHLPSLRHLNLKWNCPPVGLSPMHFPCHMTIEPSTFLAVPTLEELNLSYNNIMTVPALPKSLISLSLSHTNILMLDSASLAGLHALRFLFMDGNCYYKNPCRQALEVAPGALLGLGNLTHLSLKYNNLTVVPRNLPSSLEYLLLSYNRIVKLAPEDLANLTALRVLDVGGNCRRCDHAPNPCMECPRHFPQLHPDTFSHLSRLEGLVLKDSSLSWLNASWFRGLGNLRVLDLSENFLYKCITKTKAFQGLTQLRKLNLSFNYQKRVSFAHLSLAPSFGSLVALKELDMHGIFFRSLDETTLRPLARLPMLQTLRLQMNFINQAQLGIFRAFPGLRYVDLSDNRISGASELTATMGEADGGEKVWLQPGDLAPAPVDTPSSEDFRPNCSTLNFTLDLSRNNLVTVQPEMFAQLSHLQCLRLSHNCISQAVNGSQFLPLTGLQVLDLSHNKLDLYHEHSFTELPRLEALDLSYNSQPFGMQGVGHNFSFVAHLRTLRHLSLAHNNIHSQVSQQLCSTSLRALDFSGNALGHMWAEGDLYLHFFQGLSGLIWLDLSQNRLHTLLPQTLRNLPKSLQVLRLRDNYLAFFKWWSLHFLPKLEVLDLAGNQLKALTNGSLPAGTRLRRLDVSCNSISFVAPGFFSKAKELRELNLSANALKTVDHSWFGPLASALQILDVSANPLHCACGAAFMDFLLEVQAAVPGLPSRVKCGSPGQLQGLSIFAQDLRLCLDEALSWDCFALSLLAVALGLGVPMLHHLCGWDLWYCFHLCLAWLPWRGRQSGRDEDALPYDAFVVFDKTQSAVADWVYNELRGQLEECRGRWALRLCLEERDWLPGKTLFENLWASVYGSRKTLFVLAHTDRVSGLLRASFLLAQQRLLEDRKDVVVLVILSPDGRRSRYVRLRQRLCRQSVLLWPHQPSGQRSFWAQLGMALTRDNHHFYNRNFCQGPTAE
Method in brief: (§1)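 HEK-Blue cells overexpressing the receptor, with NF-κB/AP-1-driven SEAP, were pre-treated 30 min at room temperature with compound (0.05 nM–50 μM), then stimulated with gardiquimod 7.5 μM (TLR7), R848 15.9 μM (TLR8) or ODN2006 5 nM (TLR9). SEAP was read after 22 h at 37 °C as percent inhibition.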

[2] = molecular target: T2, human TLR7 (Homo sapiens, UniProt Q9NYK1); test: TLR7 inhibition reporter assay (HEK-Blue cells, SEAP reporter, gardiquimod stimulation); conditions: HEK-Blue cells overexpressing human TLR7, SEAP reporter, gardiquimod 7.5 μM
T2 construct: host or cells: HEK-Blue cells (HEK293-derived reporter line)
T2 sequence (Q9NYK1 27-1049): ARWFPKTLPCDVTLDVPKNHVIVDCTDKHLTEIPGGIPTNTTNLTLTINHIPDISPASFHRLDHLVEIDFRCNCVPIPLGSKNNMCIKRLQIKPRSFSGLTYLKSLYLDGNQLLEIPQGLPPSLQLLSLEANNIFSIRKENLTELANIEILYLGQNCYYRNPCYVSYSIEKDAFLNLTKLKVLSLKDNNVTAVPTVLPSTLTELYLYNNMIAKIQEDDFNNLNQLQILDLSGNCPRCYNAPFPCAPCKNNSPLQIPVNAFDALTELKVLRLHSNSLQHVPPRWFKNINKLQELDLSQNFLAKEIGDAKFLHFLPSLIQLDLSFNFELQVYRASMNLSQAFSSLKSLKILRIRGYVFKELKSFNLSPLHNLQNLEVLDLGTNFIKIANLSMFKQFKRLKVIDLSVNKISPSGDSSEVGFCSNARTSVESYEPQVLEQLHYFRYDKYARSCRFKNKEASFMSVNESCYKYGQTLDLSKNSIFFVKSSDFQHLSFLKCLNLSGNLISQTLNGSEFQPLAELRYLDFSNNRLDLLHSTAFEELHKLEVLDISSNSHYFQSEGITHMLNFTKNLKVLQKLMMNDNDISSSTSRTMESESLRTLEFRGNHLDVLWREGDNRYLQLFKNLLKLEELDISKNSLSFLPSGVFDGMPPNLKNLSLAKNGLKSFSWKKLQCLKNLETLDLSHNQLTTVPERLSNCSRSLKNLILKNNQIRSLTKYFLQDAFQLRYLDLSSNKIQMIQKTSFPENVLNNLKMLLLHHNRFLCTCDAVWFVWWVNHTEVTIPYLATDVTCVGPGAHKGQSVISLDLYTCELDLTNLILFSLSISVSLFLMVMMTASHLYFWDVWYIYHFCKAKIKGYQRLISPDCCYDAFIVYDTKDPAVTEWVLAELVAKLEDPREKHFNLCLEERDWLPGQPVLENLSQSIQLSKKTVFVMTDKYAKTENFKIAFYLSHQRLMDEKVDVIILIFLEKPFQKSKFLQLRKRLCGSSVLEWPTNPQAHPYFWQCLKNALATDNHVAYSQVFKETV
Method in brief: as §1

[3] = molecular target: T3, human TLR8 (Homo sapiens, UniProt Q9NR97); test: TLR8 inhibition reporter assay (HEK-Blue cells, SEAP reporter, R848 stimulation); conditions: HEK-Blue cells overexpressing human TLR8, SEAP reporter, R848 15.9 μM
T3 construct: host or cells: HEK-Blue cells (HEK293-derived reporter line)
T3 sequence (Q9NR97 27-1041): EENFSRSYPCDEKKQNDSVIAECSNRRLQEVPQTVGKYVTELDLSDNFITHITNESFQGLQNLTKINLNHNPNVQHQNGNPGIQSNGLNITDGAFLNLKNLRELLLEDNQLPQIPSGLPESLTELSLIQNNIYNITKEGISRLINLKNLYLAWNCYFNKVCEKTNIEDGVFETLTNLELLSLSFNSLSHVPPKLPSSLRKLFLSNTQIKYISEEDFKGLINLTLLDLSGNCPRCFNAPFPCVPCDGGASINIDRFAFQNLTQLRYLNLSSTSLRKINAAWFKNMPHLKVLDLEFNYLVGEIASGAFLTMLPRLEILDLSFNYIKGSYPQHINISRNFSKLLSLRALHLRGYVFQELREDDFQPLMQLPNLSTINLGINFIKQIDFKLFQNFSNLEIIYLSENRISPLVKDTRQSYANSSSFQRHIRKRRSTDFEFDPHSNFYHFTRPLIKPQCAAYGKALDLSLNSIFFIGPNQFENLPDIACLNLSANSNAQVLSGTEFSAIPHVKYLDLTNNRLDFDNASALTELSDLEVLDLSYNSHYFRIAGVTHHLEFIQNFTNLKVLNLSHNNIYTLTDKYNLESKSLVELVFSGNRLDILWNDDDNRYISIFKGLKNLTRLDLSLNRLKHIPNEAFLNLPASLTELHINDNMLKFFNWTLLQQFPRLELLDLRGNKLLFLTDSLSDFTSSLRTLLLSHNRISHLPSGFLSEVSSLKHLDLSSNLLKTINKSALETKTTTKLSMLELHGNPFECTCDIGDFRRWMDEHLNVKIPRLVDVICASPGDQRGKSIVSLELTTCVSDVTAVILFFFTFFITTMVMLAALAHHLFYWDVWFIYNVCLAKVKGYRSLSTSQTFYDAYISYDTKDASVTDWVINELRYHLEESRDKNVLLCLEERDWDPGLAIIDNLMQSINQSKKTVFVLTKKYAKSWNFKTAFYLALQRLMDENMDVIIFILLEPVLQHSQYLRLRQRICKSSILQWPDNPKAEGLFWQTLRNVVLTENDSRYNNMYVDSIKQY
Method in brief: as §1

| Structure (SMILES) | IC50 [1] | IC50 [2] | IC50 [3] |
| --- | --- | --- | --- |
| Cc1cc2nc(-c3[nH]c4ccc(C5CCNCC5)cc4c3C(C)C)c(F)cn2n1 [Example 148, 6-fluoro-5-(3-isopropyl-5-(piperidin-4-yl)-1H-indol-2-yl)-2-methylpyrazolo[1,5-a]pyrimidine] | 1000 to 50000 nM | < 100 nM | 100 to 1000 nM |
| CCc1c(-c2ccnc3[nH]ncc23)[nH]c2ccc(C3CCN(Cc4[nH]cnc4C)CC3)cc12 [Example 916, 4-(3-ethyl-5-(1-((4-methyl-1H-imidazol-5-yl)methyl)piperidin-4-yl)-1H-indol-2-yl)-1H-pyrazolo[3,4-b]pyridine] | 100 to 1000 nM | 100 to 1000 nM | 100 to 1000 nM |
| Cc1cc(-c2[nH]c3ccc(C4CCN(CC(C)(C)O)CC4)cc3c2C(C)C)cn2nnnc12 [Example 745, 1-(4-(3-isopropyl-2-(8-methyltetrazolo[1,5-a]pyridin-6-yl)-1H-indol-5-yl)piperidin-1-yl)-2-methylpropan-2-ol, TFA] | 1000 to 50000 nM | < 100 nM | < 100 nM |
| CC(C)c1c(-c2cnc3[nH]ccc3c2)[nH]c2ccc(C3CCN(C(=O)CN(C)C)CC3)cc12 [Example 563, 2-(dimethylamino)-1-(4-(3-isopropyl-2-(1H-pyrrolo[2,3-b]pyridin-5-yl)-1H-indol-5-yl)piperidin-1-yl)ethan-1-one] | 1000 to 50000 nM | 100 to 1000 nM | 1000 to 50000 nM |
| CCc1c(-c2ccnc3[nH]ccc23)[nH]c2ccc(C3CCN(C4CCN(C(C)C)CC4)CC3)cc12 [Example 850, 4-(3-ethyl-5-(1′-isopropyl-[1,4′-bipiperidin]-4-yl)-1H-indol-2-yl)-1H-pyrrolo[2,3-b]pyridine] | 100 to 1000 nM | < 100 nM | < 100 nM |
| Cc1c(-c2ccnc3[nH]cc(C(C)C)c23)[nH]c2ccc(C3CCNCC3)cc12 [Example 214, 3-isopropyl-4-(3-methyl-5-(piperidin-4-yl)-1H-indol-2-yl)-1H-pyrrolo[2,3-b]pyridine] | 100 to 1000 nM | 1000 to 50000 nM | 1000 to 50000 nM |
| Cc1c(-c2[nH]c3ccc(C4CCN(C(=O)CN(C)C)CC4)cc3c2C(C)C)cn2ccnc2c1C [Example 549, 2-(dimethylamino)-1-(4-(2-(7,8-dimethylimidazo[1,2-a]pyridin-6-yl)-3-isopropyl-1H-indol-5-yl)piperidin-1-yl)ethan-1-one] | 100 to 1000 nM | < 100 nM | < 100 nM |
| CC(C)c1c(-c2ccnc3[nH]ncc23)[nH]c2ccc(C3CCNCC3F)cc12 (stereo not drawn) [Example 171, 4-(5-(3-fluoropiperidin-4-yl)-3-isopropyl-1H-indol-2-yl)-1H-pyrazolo[3,4-b]pyridine] | 1000 to 50000 nM | < 100 nM | < 100 nM |
| Cc1cc(-c2[nH]c3ccc(C4CCNCC4)cc3c2C(C)C)cc2[nH]c(=O)oc12 [Example 91, 5-(3-isopropyl-5-(piperidin-4-yl)-1H-indol-2-yl)-7-methylbenzo[d]oxazol-2(3H)-one] | 100 to 1000 nM | 100 to 1000 nM | 100 to 1000 nM |
| Cc1cc(-c2[nH]c3ccc(C4CCNCC4)cc3c2C(C)C)nn2ncnc12 [Example 30, 6-(3-isopropyl-5-(piperidin-4-yl)-1H-indol-2-yl)-8-methyl-[1,2,4]triazolo[1,5-b]pyridazine] | 1000 to 50000 nM | < 100 nM | < 100 nM |
| CC(C)c1c(-c2cn(C)c3ncccc23)[nH]c2ccc(C3CCN(CCC#N)CC3)cc12 [Example 959, 3-(4-(3-isopropyl-2-(1-methyl-1H-pyrrolo[2,3-b]pyridin-3-yl)-1H-indol-5-yl)piperidin-1-yl)propanenitrile] | > 50000 nM | < 100 nM | < 100 nM |
| Cc1cc(-c2[nH]c3ccc(C4CCNCC4)cc3c2C(C)C)cc2c1oc(=O)n2C [Example 90, 5-(3-isopropyl-5-(piperidin-4-yl)-1H-indol-2-yl)-3,7-dimethylbenzo[d]oxazol-2(3H)-one] | 1000 to 50000 nM | < 100 nM | 100 to 1000 nM |
| CC(C)c1c(-c2cnc3cn[nH]c3c2)[nH]c2ccc(C3CCN(C(=O)CN(C)C)CC3)cc12 [Example 526, 2-(dimethylamino)-1-(4-(3-isopropyl-2-(1H-pyrazolo[4,3-b]pyridin-6-yl)-1H-indol-5-yl)piperidin-1-yl)ethan-1-one] | 1000 to 50000 nM | < 100 nM | < 100 nM |
| CCN(C)CC(=O)N1CCC(c2ccc3[nH]c(-c4cc(C)c5nnnn5c4)c(C(C)C)c3c2)CC1 [Example 475, 2-(ethyl(methyl)amino)-1-(4-(3-isopropyl-2-(8-methyltetrazolo[1,5-a]pyridin-6-yl)-1H-indol-5-yl)piperidin-1-yl)ethan-1-one] | 1000 to 50000 nM | < 100 nM | < 100 nM |
| Cc1cc(-c2[nH]c3ccc(C4CCN(C(=O)CN(C)C)CC4)cc3c2C(C)C)cn2nncc12 [Example 467, 2-(dimethylamino)-1-(4-(3-isopropyl-2-(4-methyl-[1,2,3]triazolo[1,5-a]pyridin-6-yl)-1H-indol-5-yl)piperidin-1-yl)ethan-1-one] | 1000 to 50000 nM | 100 to 1000 nM | 1000 to 50000 nM |
